Broadly, the IC50 is the concentration needed to halve the response being measured. As a reminder, the ED50 is the dose that gives a 50% effect, or the effect in half of the subjects. For orientation: pKa means the negative logarithm of the acid dissociation constant. Higher therefore signals a group that holds its proton tightly. As usually defined, the Kd is the equilibrium constant for the complex coming apart. Usually MIC stands for the lowest concentration found to suppress growth.

Values after ≈ are worked out from the molar mass of the structure shown.

The target of data set [1] is Glutamate [NMDA] receptor. Put plainly: Binding affinity to NMDA receptor (unknown origin). The format is protein-complex assay, Homo sapiens.
A short description of data set [2]: Toxicity in Swiss albino mouse assessed as lethality pretreated for 30 mins followed by NMDA stimulation and measured after 30 mins. Particulars: in vivo, 1 h, time 60 min.
The target in data set [3] is Glutamate [NMDA] receptor. The data set is described as follows: Binding affinity to TCP-stimulated NMDA (unknown origin). The data set is classed as protein-complex assay, Homo sapiens.
Data set [4] deals with Acetylcholinesterase (Homo sapiens, UniProt P22303). Put plainly: Inhibition of human AchE by spectrophotometric analysis.
Chain of Acetylcholinesterase (P22303 whole entry): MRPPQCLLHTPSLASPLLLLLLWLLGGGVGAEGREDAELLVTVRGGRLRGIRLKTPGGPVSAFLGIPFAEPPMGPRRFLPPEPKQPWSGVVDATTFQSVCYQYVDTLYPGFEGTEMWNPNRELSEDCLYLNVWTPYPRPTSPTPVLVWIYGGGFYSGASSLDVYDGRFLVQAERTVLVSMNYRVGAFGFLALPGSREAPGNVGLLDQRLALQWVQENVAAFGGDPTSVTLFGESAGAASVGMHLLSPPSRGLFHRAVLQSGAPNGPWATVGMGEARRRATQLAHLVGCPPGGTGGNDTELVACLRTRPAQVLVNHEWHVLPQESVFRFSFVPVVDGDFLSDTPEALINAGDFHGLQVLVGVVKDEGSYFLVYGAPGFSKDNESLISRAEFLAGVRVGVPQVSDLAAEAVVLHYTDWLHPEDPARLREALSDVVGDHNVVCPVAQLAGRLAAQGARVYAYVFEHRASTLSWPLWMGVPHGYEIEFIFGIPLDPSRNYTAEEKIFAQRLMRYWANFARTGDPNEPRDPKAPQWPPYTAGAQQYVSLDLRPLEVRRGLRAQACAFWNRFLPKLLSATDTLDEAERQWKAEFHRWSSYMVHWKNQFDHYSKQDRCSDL
Data set [5] has as its target Cholinesterase (Homo sapiens, UniProt P06276). Put plainly: Inhibition of human BchE by spectrophotometric analysis.
Data set [6] has as its system Leishmania donovani. Put plainly: Antileishmanial activity against promastigote stage of Leishmania donovani MHOM/PE/84/LC26 incubated for 72 hrs by Neubauer haemocytometric chamber analysis. The data set is classed as functional, organism-based. Conditions: MHOM/PE/84/LC26, 72 h.
Data set [7] deals with T1, C-X-C chemokine receptor type 1 (Homo sapiens, UniProt P25024).
T1 sequence (P25024 whole entry): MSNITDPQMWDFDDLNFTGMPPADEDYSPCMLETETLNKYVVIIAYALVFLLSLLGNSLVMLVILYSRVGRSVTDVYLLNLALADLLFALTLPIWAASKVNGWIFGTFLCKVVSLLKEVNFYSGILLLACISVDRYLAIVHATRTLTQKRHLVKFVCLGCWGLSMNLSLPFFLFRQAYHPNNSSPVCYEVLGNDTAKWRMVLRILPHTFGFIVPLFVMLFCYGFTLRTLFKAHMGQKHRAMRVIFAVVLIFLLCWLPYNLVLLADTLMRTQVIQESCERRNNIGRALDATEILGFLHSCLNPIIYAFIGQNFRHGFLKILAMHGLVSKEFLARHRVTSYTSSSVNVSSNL
The data set is described as follows: Inhibition of human CXCR1.

Data set [8] deals with T2, Type-2 angiotensin II receptor (Homo sapiens, UniProt P50052).
T2 sequence (P50052 whole entry): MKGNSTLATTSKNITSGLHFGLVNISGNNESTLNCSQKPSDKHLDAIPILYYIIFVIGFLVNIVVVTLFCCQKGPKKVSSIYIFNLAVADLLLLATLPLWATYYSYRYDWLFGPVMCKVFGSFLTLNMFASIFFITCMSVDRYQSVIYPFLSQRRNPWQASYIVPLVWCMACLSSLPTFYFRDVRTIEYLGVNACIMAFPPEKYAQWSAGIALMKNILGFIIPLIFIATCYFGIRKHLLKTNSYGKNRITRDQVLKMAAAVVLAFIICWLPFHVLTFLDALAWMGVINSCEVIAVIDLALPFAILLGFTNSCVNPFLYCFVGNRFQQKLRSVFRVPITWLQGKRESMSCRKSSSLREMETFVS
Put plainly: Inhibition of Angiotensin 2 binding to Angiotensin 2 receptor (unknown origin).

Data set [9] addresses T3, Interstitial collagenase (Homo sapiens, UniProt P03956).
T3 sequence (P03956 whole entry): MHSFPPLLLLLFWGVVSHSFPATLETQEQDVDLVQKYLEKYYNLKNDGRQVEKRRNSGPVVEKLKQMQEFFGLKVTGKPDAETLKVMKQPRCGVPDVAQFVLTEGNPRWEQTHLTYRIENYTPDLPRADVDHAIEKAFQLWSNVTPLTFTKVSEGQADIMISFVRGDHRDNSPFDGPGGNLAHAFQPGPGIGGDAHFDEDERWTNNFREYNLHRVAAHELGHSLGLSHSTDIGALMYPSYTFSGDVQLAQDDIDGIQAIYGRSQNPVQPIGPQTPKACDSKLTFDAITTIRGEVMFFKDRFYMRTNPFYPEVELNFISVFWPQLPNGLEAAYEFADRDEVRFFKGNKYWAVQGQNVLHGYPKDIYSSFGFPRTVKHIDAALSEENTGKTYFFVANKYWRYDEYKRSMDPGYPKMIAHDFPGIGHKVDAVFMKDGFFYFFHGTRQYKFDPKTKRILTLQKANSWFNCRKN
The data set is described as follows: Inhibition of MMP-1 (unknown origin) using DnpPro-Cha-Gly-Cys(Me)-His-Ala-Lys(Nma)-NH2 as substrate by fluorescence spectroscopy.

Data set [10] can be described thus: Dissociation constant, pKa of the compound. The data set is classed as physicochemical.
In data set [11] the target is T1, C-X-C chemokine receptor type 1. The data set is described as follows: Binding affinity to human CXCR1 assessed as dissociation constant incubated for 6 to 24 hrs by radioligand binding assay.
The target in data set [12] is T4, C-X-C chemokine receptor type 2 (Homo sapiens, UniProt P25025).
T4 sequence (P25025 whole entry): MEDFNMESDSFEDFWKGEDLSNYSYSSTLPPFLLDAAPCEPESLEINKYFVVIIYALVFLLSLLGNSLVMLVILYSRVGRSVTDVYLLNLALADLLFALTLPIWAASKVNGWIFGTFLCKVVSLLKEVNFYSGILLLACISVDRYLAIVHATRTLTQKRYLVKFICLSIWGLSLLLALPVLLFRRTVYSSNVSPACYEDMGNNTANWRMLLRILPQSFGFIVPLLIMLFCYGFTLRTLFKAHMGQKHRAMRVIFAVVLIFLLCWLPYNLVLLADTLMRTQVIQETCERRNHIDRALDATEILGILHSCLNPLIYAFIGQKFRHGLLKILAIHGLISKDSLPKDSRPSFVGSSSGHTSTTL
Put plainly: Binding affinity to human CXCR2 assessed as dissociation constant incubated for 6 to 24 hrs by radioligand binding assay.

For data set [13], the system named is Leishmania infantum. Put plainly: Antileishmanial activity against promastigote stage of Leishmania infantum MCAN/ES/2001/UCM-10 incubated for 72 hrs by Neubauer haemocytometric chamber analysis. The format is functional, organism-based. Conditions: MCAN/ES/2001/UCM-10, 72 h.
Data set [14] is described as follows: Inhibition of Yersinia pestis PTP.
In data set [15] the test system is Leishmania braziliensis. Put plainly: Antileishmanial activity against promastigote stage of Leishmania braziliensis MHOM/BR/1975/M2904 incubated for 72 hrs by Neubauer haemocytometric chamber analysis. The format is functional, organism-based. Particulars: MHOM/BR/1975/M2904, 72 h.
In data set [16] the test system is Helicobacter pylori. Put plainly: Antibacterial activity against Helicobacter pylori assessed as bacterial growth inhibition. The data set is classed as functional.
Data set [17] deals with HeLa. The data set is described as follows: Cytotoxicity against human HeLa cells assessed as reduction in cell viability incubated for 24 hrs by MTT assay. The data set is classed as functional, cell-based. Background: Formazan colour is commonly taken as a measure of viable cells.
For data set [18], the system named is Urinary bladder. The data set is described as follows: Inhibition of KCL-induced contraction in rat urinary bladder. The data set is classed as functional, tissue-based. Particulars: Urinary bladder smooth muscle.

Chain of Cholinesterase (P06276 whole entry): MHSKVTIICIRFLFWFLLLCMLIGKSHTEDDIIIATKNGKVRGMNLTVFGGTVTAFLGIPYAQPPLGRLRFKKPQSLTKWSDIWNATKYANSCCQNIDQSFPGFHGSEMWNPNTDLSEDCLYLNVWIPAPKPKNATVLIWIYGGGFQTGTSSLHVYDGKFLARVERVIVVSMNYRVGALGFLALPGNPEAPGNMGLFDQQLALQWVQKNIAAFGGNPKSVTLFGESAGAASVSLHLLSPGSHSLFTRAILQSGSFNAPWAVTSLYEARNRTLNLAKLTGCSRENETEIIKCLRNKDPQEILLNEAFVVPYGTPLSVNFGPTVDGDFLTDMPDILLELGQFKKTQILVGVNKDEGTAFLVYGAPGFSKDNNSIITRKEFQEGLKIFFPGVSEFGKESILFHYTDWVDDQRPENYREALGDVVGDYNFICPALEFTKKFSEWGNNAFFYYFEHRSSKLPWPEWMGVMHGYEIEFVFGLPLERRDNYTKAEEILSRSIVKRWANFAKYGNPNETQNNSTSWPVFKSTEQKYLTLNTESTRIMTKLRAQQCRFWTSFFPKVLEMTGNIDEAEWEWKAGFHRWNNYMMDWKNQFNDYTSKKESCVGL

In the case of `O=c1c2c(c1=O)N(CCP(=O)(O)O)CCCN2` [PERZINFOTEL], the IC50 in data set [1] was 30 nM; in [3] it was 7600 nM. The ED50 in data set [2] came out at 2.1 mg/kg.
Turning to `O=c1c(NCCCCc2c3c(nc4cc(Cl)ccc24)CCCC3)c(NCCCCc2c3c(nc4ccc(Cl)cc24)CCCC3)c1=O`, the IC50 was 2 nM in data set [4] and 110 nM in data set [5].
For `O=c1c(NCc2ccccc2)c(NC2CCN(Cc3ccccc3)CC2)c1=O`, it took 17900 nM to reach half-maximal inhibition in data set [6] (IC50).
Turning to `O=c1c(NCCCCCCCc2c3c(nc4ccccc24)CCCC3)c(NCCCCCCCc2c3c(nc4ccccc24)CCCC3)c1=O`, the 50% inhibitory concentration (IC50) in [4] was determined as 13 nM; in [5], 21 nM.
Regarding `CCC(CC)Nc1c(Nc2cccc(C(=O)N(C)C)c2O)c(=O)c1=O`, in data set [7], the concentration for half-maximal inhibition (IC50) turned out to be 15 nM.
With `O=c1c(O)c(-c2ccccc2-c2ccc(CNc3cc(C(F)(F)F)cc4c3CCCC4)cc2)c1=O`, the IC50 in data set [8] turned out to be 25 nM.
As to `O=c1c(Nc2ccccc2)c(Nc2ccc([N+](=O)[O-])cc2O)c1=O`, in [7], the half-maximal inhibitory concentration (IC50) is 36 nM.
`CC[C@@H](Nc1c(Nc2cccc(C(=O)N(C)C)c2O)c(=O)c1=O)c1ccccc1` returned an IC50 in data set [7] of 6.8 nM.
In data set [9], `CC[C@H](C)[C@H](Nc1c(N(C)O)c(=S)c1=O)C(=O)N[C@@H](Cc1ccccc1)C(=O)NC` came in with an IC50 of 15000 nM.
As to `Nc1nc2c(ncn2[C@@H]2O[C@@H]3CNc4c(c(=O)c4=O)N[C@H]3[C@H]2O)c(=O)[nH]1`, the pKa in data set [10] worked out at 2.3.
Take `Nc1c(NCCP(=O)(O)O)c(=O)c1=O`: the concentration for half-maximal inhibition (IC50) in data set [1] was determined as 470 nM. Moreover, the 50% effective dose (ED50) in [2] turned out to be 29 mg/kg.
Regarding `CC[C@@H](Nc1c(Nc2cccc(C(=O)N(C)C)c2O)c(=O)c1=O)c1ccco1`, the Kd amounted to 3.9 nM in [11] and 0.049 nM in data set [12].
Molecule `CCCCCCCCCCCCCCC(C)Nc1c(NCC[N+](C)(C)C)c(=O)c1=O` (configuration not stated) displayed a half-maximal inhibitory concentration (IC50) in data set [13] of 16300 nM.
Take `O=c1c(O)c(-c2ccc3ccccc3c2)c1=O`: in [14], the midpoint of inhibition, the IC50, lay at 40000 nM.
On to `CCCCNc1c(N(C)CCCN(C)C)c(=O)c1=O`, for which the values for the IC50 in data set [13] and in data set [15] were 18000 nM and 17300 nM, respectively.
As to `O=c1c(NC/C=C\COc2cc(CN3CCCCC3)cs2)c(NCCF)c1=O`, the minimum inhibitory concentration (MIC) in data set [16] was determined as 1.56 mg/L (≈ 3.83 µM).
Take `COc1c(Nc2ccc3ccccc3c2-c2c(O)ccc3ccccc23)c(=O)c1=O`: in data set [17], the 50% inhibitory concentration (IC50) came to 46700 nM.
`CCc1cc(C#N)ccc1Nc1c(N[C@H](C)C(C)(C)C)c(=O)c1=O` yielded a half-inhibitory concentration (IC50) in data set [18] of 90 nM.
Molecule `O=c1c(O)c(-c2ccc([N+](=O)[O-])cc2)c1=O` had a half-inhibitory concentration (IC50) in data set [14] of 120000 nM.
Take `COc1c(Nc2ccc3c4c(cccc24)-c2ccccc2-3)c(=O)c1=O`: the half-maximal inhibitory concentration (IC50) in data set [17] was found to be 880 nM.
